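All cell lines were grown in 96-well plates and treated with compound for 48 hours. TGI marks complete inhibition of growth.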
How the values were obtained:
Test in all cases: DTP human tumour cell line panel, 48 h
CAKI-1 renal = system: CAKI-1 renal
COLO 205 colon = system: COLO 205 colon
HS 578T breast = system: HS 578T breast
T-47D breast = system: T-47D breast
MCF7 breast = system: MCF7 breast
786-0 renal = system: 786-0 renal
A549 NSCLC = system: A549 NSCLC
RXF 393 renal = system: RXF 393 renal
MDA-MB-435 = system: MDA-MB-435
K-562 leukemia = system: K-562 leukemia
SR leukemia = system: SR leukemia
UACC-257 melanoma = system: UACC-257 melanoma
CCRF-CEM leukemia = system: CCRF-CEM leukemia
HCT-15 colon = system: HCT-15 colon
SNB-75 CNS = system: SNB-75 CNS
TK-10 renal = system: TK-10 renal
UO-31 renal = system: UO-31 renal
NCI-H460 lung = system: NCI-H460 lung
NCI-H226 lung = system: NCI-H226 lung

SMILES	TGI (CAKI-1 renal)	TGI (COLO 205 colon)	TGI (HS 578T breast)	TGI (T-47D breast)	TGI (MCF7 breast)	TGI (786-0 renal)	TGI (A549 NSCLC)	TGI (RXF 393 renal)	TGI (MDA-MB-435)	TGI (K-562 leukemia)	TGI (SR leukemia)	TGI (UACC-257 melanoma)	TGI (CCRF-CEM leukemia)	TGI (HCT-15 colon)	TGI (SNB-75 CNS)	TGI (TK-10 renal)	TGI (UO-31 renal)	TGI (NCI-H460 lung)	TGI (NCI-H226 lung)
CC1=C(C#N)C(C#N)(C#N)C(NN(C)C)C1 (stereo unspecified)	7 µM	16.1 µM	> 100 µM	27.8 µM	77.3 µM	25.6 µM	> 100 µM	31.3 µM	75 µM	60.8 µM	> 100 µM	26.4 µM	> 100 µM	21.3 µM	40.3 µM	34 µM	29.3 µM	–	–
CCc1nc(N)nc(N)c1-c1ccc(Cl)c(Cl)c1	> 100 µM	> 100 µM	> 100 µM	> 100 µM	> 100 µM	> 100 µM	> 100 µM	> 100 µM	> 100 µM	–	> 100 µM	> 100 µM	> 100 µM	> 100 µM	> 100 µM	> 100 µM	> 100 µM	> 100 µM	–
CC1(CCCO)CCCCCC(C)(CCCO)C1=O (stereo unspecified)	> 100 µM	> 100 µM	> 100 µM	> 100 µM	> 100 µM	> 100 µM	> 100 µM	> 100 µM	> 100 µM	> 100 µM	> 100 µM	> 100 µM	> 100 µM	> 100 µM	> 100 µM	–	> 100 µM	> 100 µM	> 100 µM
COc1ccc(N=C2SC(=N/N=c3\sc4ccccc4n3C)SC2=Nc2ccc(OC)cc2)cc1	> 100 µM	> 100 µM	> 100 µM	> 100 µM	> 100 µM	> 100 µM	> 100 µM	> 100 µM	> 100 µM	> 100 µM	> 100 µM	> 100 µM	–	> 100 µM	94.5 µM	> 100 µM	> 100 µM	> 100 µM	> 100 µM
C=CCNC1=C2C[C@@H](C)C[C@@H](OC)[C@H](OC(=O)CCCCN)[C@H](C)/C=C(\C)[C@@H](OC(N)=O)[C@H](OC)/C=C\C=C(/C)C(=O)NC(=CC1=O)C2=O	33.2 µM	16.6 µM	58.4 µM	29.9 µM	12.4 µM	26.5 µM	25.2 µM	29.2 µM	25.6 µM	> 100 µM	> 100 µM	18.9 µM	56.4 µM	34.1 µM	15.2 µM	29 µM	34.2 µM	26 µM	–
O=c1[nH]c(-c2ccc3ccccc3c2)nc2ccccc12	> 100 µM	> 100 µM	> 100 µM	> 100 µM	> 100 µM	> 100 µM	> 100 µM	> 100 µM	> 100 µM	> 100 µM	> 100 µM	> 100 µM	–	> 100 µM	28.6 µM	13.4 µM	60.9 µM	> 100 µM	> 100 µM
CCCCCN=Cc1c(O)c(O)c(C(C)C)c2cc(C)c(-c3c(C)cc4c(C(C)C)c(O)c(O)c(C=NCCCCC)c4c3O)c(O)c12	97.6 µM	9.15 µM	> 100 µM	25.8 µM	27.2 µM	> 100 µM	> 100 µM	46.8 µM	17.8 µM	70 µM	> 100 µM	46.2 µM	> 100 µM	78 µM	–	> 100 µM	41.1 µM	> 100 µM	88.4 µM
CCn1c(-c2cc(OC)cc(OC)c2)nc2c1C(=O)c1ccccc1C2=O	–	> 100 µM	> 100 µM	> 100 µM	> 100 µM	> 100 µM	> 100 µM	69.2 µM	> 100 µM	> 100 µM	> 100 µM	> 100 µM	> 100 µM	> 100 µM	> 100 µM	> 100 µM	–	> 100 µM	> 100 µM
COC(=O)Cc1cc(O)c(C/C=C(\C)CC/C=C(\C)C(O)C(=O)C=C(C)C)cc1O (stereo unspecified)	–	57.7 µM	> 100 µM	43.2 µM	89.5 µM	> 100 µM	> 100 µM	30 µM	45.4 µM	39.1 µM	41.6 µM	77.6 µM	10.3 µM	–	56.4 µM	–	46 µM	48.3 µM	51.8 µM
COc1ccc(C(=O)Sc2c(-c3ccccc3)c(=O)n(-c3ccccc3)c(=S)n2-c2ccccc2)cc1	> 100 µM	> 100 µM	> 100 µM	> 100 µM	> 100 µM	> 100 µM	> 100 µM	98.4 µM	> 100 µM	> 100 µM	> 100 µM	> 100 µM	> 100 µM	> 100 µM	> 100 µM	> 100 µM	–	> 100 µM	58.7 µM
COc1cc(/C=C2\CCC(C)C3C2=NN(C(C)=O)C3c2cc(OC)c(OC)c(OC)c2)cc(OC)c1OC (stereo unspecified)	> 100 µM	> 100 µM	> 92.2 µM	67.8 µM	> 100 µM	> 100 µM	> 100 µM	> 100 µM	> 100 µM	> 100 µM	> 100 µM	> 100 µM	> 100 µM	> 100 µM	> 54.6 µM	> 100 µM	–	> 100 µM	> 100 µM
O=S1(=O)OCCOS(=O)(=O)C1F	> 100 µM	> 100 µM	> 100 µM	> 100 µM	> 100 µM	> 100 µM	> 100 µM	> 100 µM	> 100 µM	> 100 µM	> 100 µM	> 100 µM	> 100 µM	> 100 µM	> 100 µM	> 100 µM	> 100 µM	–	> 100 µM
Clc1c(Cl)c(Cl)c2nn(C3CCCO3)nc2c1Cl (stereo unspecified)	> 100 µM	> 100 µM	49.5 µM	> 100 µM	> 100 µM	> 100 µM	> 100 µM	> 100 µM	> 100 µM	98.3 µM	> 100 µM	> 100 µM	> 100 µM	–	–	> 100 µM	–	–	> 100 µM

From PubChem BioAssay (NCI)
